{
  "source": "BindingDB's records for doi:10.1021/acsmedchemlett.6b00299",
  "about": "(University of Michigan, 2016)",
  "test": "Inhibition of human serum factor D-mediated complement activation in rabbit erythrocytes assessed as reduction in rabbit erythrocyte hemolysis preincubated with human serum for 15 mins followed by addition of rabbit erythrocytes and Mg-EGTA measured after 30 mins",
  "data": [
    {"smiles": "NC(=O)c1nn(CC(=O)N2[C@@H]3C[C@@H]3C[C@H]2C(=O)Nc2cccc(Br)n2)c2ncccc12", "values": [
      {"measurement": "IC50", "result": 47, "unit": "nM"}
    ]},
    {"smiles": "NC(=O)c1nn(CC(=O)N2CCS[C@H]2C(=O)Nc2cccc(Br)n2)c2ncccc12", "values": [
      {"measurement": "IC50", "result": 205, "unit": "nM"}
    ]}
  ]
}
